ChEMBL document CHEMBL5620379, “Discovery, SAR and mechanistic studies of quinazolinone-based acetamide derivatives in experimental visceral leishmaniasis” (Eur J Med Chem, 2023)
The source made the active and inactive calls. No cut-off for these calls is given here.

Experiments:
Leishmania donovani [1] = experiment: Antileishmanial activity against amastigote form of Leishmania donovani infected in BALB/c mouse assessed as inhibition of parasite growth in spleen at 20 mg/kg, po measured after 1 week post treatment by geimsa staining based analysis relative to control; format: functional; set-up: scale not given: the % may be the effect or the level left; details: time 1 weeks
Leishmania donovani [2] = experiment: Induction of cell cycle arrest in Leishmania donovani promastigotes assessed as accumulation of cells at G1 phase at 25 uM measured after 8 hrs by PI staining based flow cytometry analysis (reference value: 35.7%); format: functional
Leishmania donovani [3] = experiment: Antileishmanial activity against Leishmania donovani infected in golden hamster assessed as inhibition of parasite growth in liver at 80 mg/kg, po administered for 7 days and measured after 28 days by giemsa staining based analysis relative to control; format: functional; set-up: scale not given: the % may be the effect or the level left; details: time 28 day
J774 [4] = experiment: Cytotoxicity against mouse J774 cells at 50 uM incubated for 72 hrs by MTT assay relative to control; format: toxicity, cell-based; details: j774, 72 h
J774 [5] = experiment: Cytotoxicity against mouse J774 macrophage incubated for 72 hrs by MTT assay; format: functional
Leishmania donovani [6] = experiment: Induction of cell cycle arrest in Leishmania donovani promastigotes assessed as accumulation of cells at S phase at 25 uM measured after 24 hrs by PI staining based flow cytometry analysis (reference value: 28.6%); format: functional
Leishmania donovani [7] = experiment: Induction of autophagy in Leishmania donovani promastigotes assessed as fold increase in Sir2 transcript level at 25 uM measured after 24 hrs by RT-PCR analysis; format: functional
J774 [8] = experiment: Downregulation of CREB phosphorylation level at Ser133 residue in mouse J774 macrophage infected with Leishmania donovani at 25 uM measured after 12 to 16 hrs by immunoblot analysis; format: functional, cell-based; details: time 12-16 hrs
J774 [9] = experiment: Downregulation of CREB enrichment in mouse J774 macrophage infected with Leishmania donovani at 25 uM measured after 4 hrs by ChIP assay; format: functional, cell-based
Leishmania donovani [10] = experiment: Induction of cell cycle arrest in Leishmania donovani promastigotes assessed as accumulation of cells at G2/M phase at 25 uM measured after 24 hrs by PI staining based flow cytometry analysis (reference value: 35.7%); format: functional
Leishmania donovani [11] = experiment: Induction of autophagy in Leishmania donovani promastigotes assessed as increase in number of MDC-positive parasite by measuring MDC-labelled vacuoles at 25 uM measured after 24 hrs by MDC staining based analysis; format: functional, organism-based
Leishmania donovani [12] = experiment: Antileishmanial activity against Leishmania donovani amastigotes infected in J774 macrophage assessed as inhibition of parasite growth at 25 uM incubated for 48 hrs by luciferase assay relative to control; format: functional; set-up: scale not given: the % may be the effect or the level left
Leishmania donovani [13] = experiment: Induction of autophagy in Leishmania donovani promastigotes assessed as fold induction of ATG12 gene at 25 uM measured after 24 hrs by RT-PCR analysis; format: functional
Leishmania donovani [14] = experiment: Antileishmanial activity against Leishmania donovani amastigotes infected in J774 macrophage assessed as inhibition of parasite growth incubated for 48 hrs by luciferase assay; format: functional, organism-based; details: J774, 48 h
Splenocyte = experiment: Immunostimulatory activity in mouse splenocyte assessed as decrease in IL-10 secretion at 10 to 40 mg/kg measured after 1 week by RT-PCR analysis relative to control; format: functional; set-up: scale not given: the % may be the effect or the level left; details: dose 10-40 mg/kg, time 1 weeks
Leishmania donovani [15] = experiment: Antileishmanial activity against amastigote form of Leishmania donovani infected in BALB/c mouse assessed as inhibition of parasite growth in spleen at 10 mg/kg, po measured after 1 week post treatment by geimsa staining based analysis relative to control; format: functional; set-up: scale not given: the % may be the effect or the level left; details: time 1 weeks
Leishmania donovani [16] = experiment: Antileishmanial activity against amastigote form of Leishmania donovani infected in BALB/c mouse assessed as inhibition of parasite growth in liver at 20 mg/kg, po measured after 1 week post treatment by geimsa staining based analysis relative to control; format: functional; set-up: scale not given: the % may be the effect or the level left; details: time 1 weeks
J774 [17] = experiment: Cytotoxicity against mouse J774 cells at 12.5 uM incubated for 72 hrs by MTT assay relative to control; format: toxicity, cell-based; details: j774, 72 h
Leishmania donovani [18] = experiment: Induction of cell cycle arrest in Leishmania donovani promastigotes assessed as accumulation of cells at S phase at 25 uM measured after 8 hrs by PI staining based flow cytometry analysis (reference value: 28.6%); format: functional
Leishmania donovani [19] = experiment: Antileishmanial activity against Leishmania donovani infected in golden hamster assessed as inhibition of parasite growth in spleen at 40 mg/kg, po administered for 7 days and measured after 28 days by giemsa staining based analysis relative to control; format: functional; set-up: scale not given: the % may be the effect or the level left; details: time 28 day
J774 [20] = experiment: Cytotoxicity against mouse J774 cells at 25 uM incubated for 72 hrs by MTT assay relative to control; format: toxicity, cell-based; details: j774, 72 h
Leishmania donovani [21] = experiment: Induction of cell cycle arrest in Leishmania donovani promastigotes assessed as accumulation of cells at S phase at 25 uM measured after 12 hrs by PI staining based flow cytometry analysis (reference value: 28.6%); format: functional
Leishmania donovani [22] = experiment: Antileishmanial activity against Leishmania donovani promastigotes assessed as decrease in intracellular proline level at 25 uM measured after 24 hrs (reference value: 6.27 mM); format: functional
J774 [23] = experiment: Downregulation of Akt phosphorylation in mouse J774 macrophage infected with Leishmania donovani at 25 uM measured after 4 to 8 hrs by immunoblot analysis; format: functional, cell-based; details: time 4-8 hrs
[24] = Renal toxicity in golden hamster assessed as effect on creatinine level at 40 mg/kg, po measured after 28 days post infection; format: organism-based, Mesocricetus auratus; details: in vivo, 672 h, time 28 day
Leishmania donovani [25] = experiment: Induction of apoptosis in Leishmania donovani promastigotes assessed as appearance of disorganised mitochondrial cristae at 25 uM by transmission electron microscopy analysis; format: functional, organism-based

`Cn1c(-c2ccc(OCC(=O)Nc3ccccn3)cc2)nc2ccccc2c1=O` showed an Activity (Leishmania donovani [1]) of over 50%, an Activity (Leishmania donovani [2]) of 55.5% and an Activity (Leishmania donovani [3]) of 86.5%. The Activity (J774 [4]) was 52.15%, the CC50 (J774 [5]) was 65 µM and the Activity (Leishmania donovani [6]) was 13.9%. For the same molecule, the “fold change (FC)” value (Leishmania donovani [7]) was 4.95, the Activity (J774 [8]) was “Active” and the Activity (J774 [9]) was “Active”. The Activity (Leishmania donovani [10]) was 13.9%, the Activity (Leishmania donovani [11]) was “Active” and the Activity (Leishmania donovani [12]) was 82.68%. The “fold change (FC)” value (Leishmania donovani [13]) was 8.57, the IC50 (Leishmania donovani [14]) was 3.55 µM and the Activity (Splenocyte) was 47.69%. It also gave an Activity (Leishmania donovani [15]) of over 50%, an Activity (Leishmania donovani [16]) of over 50% and an Activity (J774 [17]) of 90.78%. It also gave an Activity (Leishmania donovani [18]) of 20.7%, an Activity (Leishmania donovani [19]) of 68.4% and an Activity (J774 [20]) of 79.57%. For the same molecule, the Activity (Leishmania donovani [21]) was 15.5%, the Activity (Leishmania donovani [22]) was 2.96 mM and the Activity (J774 [23]) was “Active”. The Activity [24] was “Non-Toxic” and the Activity (Leishmania donovani [25]) was “Active”.
